In publication PMC10385825, “Synthesis of Benzocycloalkanone-Based Michael Acceptors and Biological Activities as Antimalarial and Antitrypanosomal Agents” (Molecules, 2023):
“And” between values parts separate entries of the source, which are not always exact repeats. Identical values can stand only once. Values belong to the compound of their own block, whether it stands above or below them.

How the values were obtained:
[1] = test system: T. cruzi epimastigotes (Y strain); assay: Trypanocidal activity, proliferation of T. cruzi epimastigotes (MTT); assay type: cell-based; conditions: Trypanosoma cruzi, 96 h, read-out: %ITcP: T. cruzi (epimastigotes) % inhibition proliferation
Experimental: The trypanocidal activity of compounds 7–39 was evaluated on the viability of T. cruzi epimastigotes (Y Strain). Parasites were cultivated in LIT medium supplemented with 10% FBS. The MTT method was used with minor modifications. Next, 2 × 10^6 parasites/mL were seeded in a 96-well plate, adding 50 μM of each derivative dissolved in DMSO (final concentration remained below 1%). The plate was incubated for 96 h at 29 °C. Then, 5 mg mL^−^1 of 3-(4,5-dimethylthiazol-2-yl)-2,5-diphenyl tetrazolium bromide (MTT) was added and incubated in darkness for 4 h. After this time, acidic isopropanol (4N) was added and the plate was read at 540 nm in a spectrophotometer Synergy HT (Biotek). Benznidazole (50 µM) was used as a reference drug.

VERO cells = assay: Cytotoxicity assay in VERO cells (MTT); assay type: cell-based; conditions: Chlorocebus sabaeus, 72 h
Experimental: The in vitro evaluations of compounds toxicity by MTT in VERO cells were performed as described in brief: VERO cells culture in DMEM, BSF 10%, were counted in suspension, seeded at 2 × 10^4 cells/well (100 μL) into a 96-well microplate, and incubated at 37 °C in a humidified 5% CO2 incubator for 24 h. After the incubation period, compounds were added in different concentrations: 50, 100, 150, 200, and 500 μM. The plate was incubated for 72 h in the same conditions. Then, 5 mg mL^−^1 of 3-(4,5-dimethylthiazol-2-yl)-2,5-diphenyl tetrazolium bromide (MTT) was added and incubated in darkness for 4 h. After this time, DMSO was added and the plate was read at 540 nm in a spectrophotometer Synergy HT (Biotek). The test was carried out in triplicate including untreated cells and reference drug controls.

β-hematin formation = assay: Inhibition of β-hematin formation in vitro; assay type: biochemical; conditions: for IC50: n = 3, read-out: IC50 (βHF) inhibition of β-hematin formation (± SEM)
Experimental: The assay was performed according to previously reported protocols. Hemin chloride (50 μL, 4 mM) in DMSO (5.2 mg mL^−1) was pipetted into 96-well microplates. Different concentrations (0.1–100 mM) of the compounds in DMSO were added in triplicate (50 μL) with a final concentration of 0.025 mM–25 mM/well. Water (50 μL) or DMSO (50 μL) were used as controls. […] Next, the plates were incubated at 37 °C for 48 h and subsequently centrifuged (4000 rpm × 15 min). The supernatant was washed twice with DMSO (200 μL) and resuspended in NaOH (200 μL, 0.2 N). The solubilized products were diluted (1:2) with NaOH (0.1 N), and the plates were read in an ELISA reader at 405 nm (Microplate Reader, BIORAD-550). The results are expressed as % IβHF.

P. berghei ANKA = assay: Four-day suppressive test in P. berghei-infected mice; assay type: in vivo, Plasmodium berghei (male Balb-C mice); conditions: for Sd: Survival days (± SEM): 20 mg kg−1 ip once daily, days 1–4 post-infection; for Sd: Survival days (± SEM) / %P: Percentage of parasitemia (± SEM): n = 6; for %P: Percentage of parasitemia (± SEM): fourth day post-infection, 20 mg kg−1 ip once daily for 4 days; for Survival: surviving mice/total, 20 mg kg−1 ip for 4 days
Experimental: Male Balb-C mice with a weight of 18–22 g were fed with a commercial diet ad libitum under standard procedures of animal care following the aforementioned method approved by the Ethics Committee of the Institute of Immunology. The animals were infected with a rodent malaria strain of Plasmodium berghei ANKA. A million infected erythrocytes, in phosphate-buffered saline solution (PBS, 10 mM, pH 7.4, 0.1 mL), were inoculated ip to infect the animal. The parasitemia was inspected by continuous microscopic examination of Giemsa-stained smears.
One million P. berghei, injected in the caudal vein i.v, were used to infect the mice (n = 6). After two hours of inoculation, the compounds that were active in vitro were dissolved in DMSO (0.1 M) and subsequently diluted with Saline-Tween 20 solution (2%), and administered ip for 4 days (20 mg kg^−^1). The parasite load was evaluated on the fourth day by examining Giemsa-stained smears. Chloroquine (20 mg kg^−^1) was used as the positive control and saline solution as the negative control. Non-treated mice were used as a baseline control for survival times. The survival days and percentage of parasitemia were used to express the results.

Structure (SMILES): O=C(Cn1ccnc1[N+](=O)[O-])NCc1ccccc1 [Bnz, benznidazole, reference compound]
inhibition at 50 µM [1]: 60 ± 2.9%
IC50 (VERO cells): > 200 µM

Structure (SMILES): CCN(CC)CCCC(C)Nc1ccnc2cc(Cl)ccc12 (stereo not shown) [CQ, chloroquine, reference compound]
%IβHF: Percentage inhibition β-hematin formation (β-hematin formation; concentration of 10 μM): 95.34%
IC50 (β-hematin formation): 0.18 ± 0.1 µM
Sd: Survival days (± SEM) (P. berghei ANKA): 28 ± 1.34 days and 28 ± 1.3 days
%P: Percentage of parasitemia (± SEM) (P. berghei ANKA): 1.4 ± 0.54%
Survival (P. berghei ANKA): 5/6

Structure (SMILES): O=C1/C(=C/c2ccc(SCc3ccccc3)cc2)Cc2ccccc21 [compound 7, (E)-2-[4-(Benzylthio)benzylidene]-2,3-dihydroinden-1-one]
melting point: 155 to 157 °C

Structure (SMILES): COc1ccc2c(c1OC)C/C(=C\c1ccc(SCc3ccccc3)cc1)C2=O [compound 10, (E)-2-[4-(Benzylthio)benzylidene]-2,3-dihydro-4,5-dimethoxyinden-1-one]
IC50 (β-hematin formation): 33.1 ± 2.5 µM
inhibition at 50 µM [1]: 33 ± 5.6%
Sd: Survival days (± SEM) (P. berghei ANKA): 18.8 ± 4.91 days and 18.8 ± 4.9 days
%P: Percentage of parasitemia (± SEM) (P. berghei ANKA): 9.1 ± 2.44%
Survival (P. berghei ANKA): 0/6
IC50 (VERO cells): > 150 µM

Structure (SMILES): COc1cc2c(cc1OC)C(=O)/C(=C/c1ccc(SCc3ccccc3)cc1)C2 [compound 11, (E)-2-[4-(Benzylthio)benzylidene]-2,3-dihydro-5,6-dimethoxyinden-1-one]
IC50 (β-hematin formation): 0.82 ± 0.1 µM
inhibition at 50 µM [1]: 40 ± 8.2%
Sd: Survival days (± SEM) (P. berghei ANKA): 14.2 ± 2.16 days and 14.2 ± 2.2 days
%P: Percentage of parasitemia (± SEM) (P. berghei ANKA): 7.6 ± 2.3%
Survival (P. berghei ANKA): 0/6
IC50 (VERO cells): > 150 µM

Structure (SMILES): Cc1cccc2c1C/C(=C\c1ccc(SCc3ccccc3)cc1)C2=O [compound 15, (E)-2-[4-(Benzylthio)benzylidene]-2,3-dihydro-4-methylinden-1-one]
melting point: 167 to 169 °C

Structure (SMILES): O=C1/C(=C/c2ccc(OCc3ccccc3)cc2)Cc2ccccc21 [compound 20, (E)-2-[4-(Benzyloxy)benzylidene]-2,3-dihydroinden-1-one]
melting point: 170 °C

Structure (SMILES): COc1ccc2c(c1)C/C(=C\c1ccc(OCc3ccccc3)cc1)C2=O [compound 21, (E)-2-[4-(Benzyloxy)benzylidene]-2,3-dihydro-5-methoxyinden-1-one]
melting point: 141 to 142 °C

Structure (SMILES): COc1ccc2c(c1)C(=O)/C(=C/c1ccc(OCc3ccccc3)cc1)C2 [compound 22, (E)-2-[4-(Benzyloxy)benzylidene]-2,3-dihydro-6-methoxyinden-1-one]
melting point: 178 to 179 °C

Structure (SMILES): COc1ccc2c(c1OC)C/C(=C\c1ccc(OCc3ccccc3)cc1)C2=O [compound 23, (E)-2-[4-(Benzyloxy)benzylidene]-2,3-dihydro-4,5-dimethoxyinden-1-one]
melting point: 167 to 168 °C

Structure (SMILES): COc1ccc(OC)c2c1C/C(=C\c1ccc(OCc3ccccc3)cc1)C2=O [compound 25, (E)-2-[4-(Benzyloxy)benzylidene]-2,3-dihydro-4,7-dimethoxyinden-1-one]
melting point: 209 to 210 °C

Structure (SMILES): Cc1cccc2c1C/C(=C\c1ccc(OCc3ccccc3)cc1)C2=O [compound 27, (E)-2-[4-(Benzyloxy)benzylidene]-2,3-dihydro-4-methylinden-1-one]
melting point: 127 to 129 °C

Structure (SMILES): O=C1/C(=C/c2ccc(OCc3ccccc3)cc2)Cc2cc(Cl)ccc21 [compound 28, (E)-2-[4-(Benzyloxy)benzylidene]-5-chloro-2,3-dihydroinden-1-one]
melting point: 189 to 190 °C

Structure (SMILES): O=C1/C(=C/c2ccc(OCc3ccccc3)cc2)Cc2ccc(Cl)cc21 [compound 29, (E)-2-[4-(Benzyloxy)benzylidene]-6-chloro-2,3-dihydroinden-1-one]
melting point: 186 to 187 °C

Structure (SMILES): O=C1/C(=C/c2ccc(OCc3ccccc3)cc2)Cc2c(Cl)cc(Cl)cc21 [compound 30, (E)-2-[4-(Benzyloxy)benzylidene]-4,6-dichloro-2,3-dihydroinden-1-one]
melting point: 202 to 203 °C

Structure (SMILES): O=C1/C(=C/c2ccc(OCc3ccccc3)cc2)Cc2cc(F)cc(F)c21 [compound 31, (E)-2-[4-(Benzyloxy)benzylidene]-5,7-difluoro-2,3-dihydroinden-1-one]
melting point: 204 to 206 °C

Structure (SMILES): O=C1/C(=C/c2ccc(SCc3ccccc3)cc2)CCc2ccccc21 [compound 32, (E)-2-[4-(Benzylthio)benzylidene]-3,4-dihydronaphthalen-1(2H)-one]
melting point: 99 to 100 °C
inhibition at 50 µM [1]: 43.7 ± 6.7%
IC50 (VERO cells): > 150 µM

Structure (SMILES): COc1cccc2c1CC/C(=C\c1ccc(SCc3ccccc3)cc1)C2=O [compound 33, (E)-2-[4-(Benzylthio)benzylidene]-3,4-dihydro-5-methoxynaphthalen-1(2H)-one]
inhibition at 50 µM [1]: 51.1 ± 3.4%
IC50 (VERO cells): > 150 µM

Structure (SMILES): COc1ccc2c(c1)C(=O)/C(=C/c1ccc(SCc3ccccc3)cc1)CC2 [compound 35, (E)-2-[4-(Benzylthio)benzylidene]-3,4-dihydro-7-methoxynaphthalen-1(2H)-one]
inhibition at 50 µM [1]: 36.2 ± 6.1%
IC50 (VERO cells): > 150 µM

Now from value to compound, other results behind:

melting point: 166 to 168 °C
Structure (SMILES): COc1ccc2c(c1)C/C(=C\c1ccc(SCc3ccccc3)cc1)C2=O [compound 8, (E)-2-[4-(Benzylthio)benzylidene]-2,3-dihydro-5-methoxyinden-1-one]

melting point: 175 to 177 °C
Structure (SMILES): COc1ccc2c(c1)C(=O)/C(=C/c1ccc(SCc3ccccc3)cc1)C2 [compound 9, (E)-2-[4-(Benzylthio)benzylidene]-2,3-dihydro-6-methoxyinden-1-one]

melting point: 176 to 178 °C
Structure (SMILES): COc1cc2c(c(OC)c1)C(=O)/C(=C/c1ccc(SCc3ccccc3)cc1)C2 [compound 13, (E)-2-[4-(Benzylthio)benzylidene]-2,3-dihydro-5,7-dimethoxyinden-1-one]

melting point: 194 to 196 °C
Structure (SMILES): O=C1/C(=C/c2ccc(SCc3ccccc3)cc2)Cc2cc3c(cc21)OCO3 [compound 14, (E)-2-[4-(Benzylthio)benzylidene]-2,3-dihydro-5,6-methylendioxyinden-1-one]

melting point: 140 to 142 °C
Structure (SMILES): O=C1/C(=C/c2ccc(SCc3ccccc3)cc2)Cc2cc(Cl)ccc21 [compound 16, (E)-2-[4-(Benzylthio)benzylidene]-5-chloro-2,3-dihydroinden-1-one]

melting point: 204 °C
Structure (SMILES): O=C1/C(=C/c2ccc(SCc3ccccc3)cc2)Cc2ccc(Cl)cc21 [compound 17, (E)-2-[4-(Benzylthio)benzylidene]-6-chloro-2,3-dihydroinden-1-one]

melting point: 181 to 183 °C
Structure (SMILES): O=C1/C(=C/c2ccc(SCc3ccccc3)cc2)Cc2c(Cl)cc(Cl)cc21 [compound 18, (E)-2-[4-(Benzylthio)benzylidene]-4,6-dichloro-2,3-dihydroinden-1-one]

melting point: 170 to 172 °C
Structure (SMILES): O=C1/C(=C/c2ccc(SCc3ccccc3)cc2)Cc2cc(F)cc(F)c21 [compound 19, (E)-2-[4-(Benzylthio)benzylidene]-5,7-difluoro-2,3-dihydroinden-1-one]
IC50 (VERO cells): > 150 µM

melting point: 207 to 208 °C
Structure (SMILES): COc1cc2c(cc1OC)C(=O)/C(=C/c1ccc(OCc3ccccc3)cc1)C2 [compound 24, (E)-2-[4-(Benzyloxy)benzylidene]-2,3-dihydro-5,6-dimethoxyinden-1-one]

melting point: 122 to 124 °C
Structure (SMILES): COc1ccc2c(c1)CC/C(=C\c1ccc(SCc3ccccc3)cc1)C2=O [compound 34, (E)-2-[4-(Benzylthio)benzylidene]-3,4-dihydro-6-methoxynaphthalen-1(2H)-one]
